In US20120035247A1, “RNA Interference Mediated Inhibition of Signal Transducer and Activator of Transcription 6 (STAT6) Gene Expression Using Short Interfering Nucleic Acid (siNA)” (Merck Sharp & Dohme Corp., priority 2009, published 2012):
[invAb] = inverted abasic unit; m = 2'-O-methyl; r = 2'-OH (RNA); f = 2'-fluoro

Experiments:
STAT6 mRNA [1] = experiment: STAT6 siNA screen in mouse NIH 3T3 cells, STAT6 mRNA by quantitative RT-PCR (Taqman); type: cell-based; conditions: mouse NIH3T3 cells, 10 nM siNA, 24 hrs, normalized to GAPDH and non-targeting control, n = 2
Protocol: NIH 3T3 (mouse; ATCC cat# CRL-1658): Cells were cultured at 37° C. in the presence of 5% CO2 and grown in Dulbecco's modified Eagle's medium (DMEM) with 4 mM L-glutamine adjusted to contain 1.5 g/L sodium bicarbonate and 4.5 g/L glucose and supplemented with fetal bovine serum at a final concentration of 10%, 100 μg/mL of streptomycin, and 100 U/mL penicillin.
(§1) Cells were plated in all wells of a tissue-culture treated, 96-well plate at a final count of 5000 cells/well in […], of the appropriate culture media. The cells were cultured for 24 hours after plating at 37° C. in the presence of 5% CO2.
(§2) After 24 hours, complexes containing siNA and RNAiMax were created as follows: A solution of RNAiMax diluted 33-fold in OPTI-MEM was prepared. In parallel, solutions of the siNAs for testing were prepared to a final concentration of 120 nM in OPTI-MEM. After incubation of RNAiMax/OPTI-MEM solution at room temperature for 5 min, an equal volume of the siNA solution and the RNAiMax solution were added together for each of the siNAs.
(§3) This solution was incubated at room temperature for 20 minutes. After incubation, 20 uL of the solution was added to each of the relevant wells. The final concentration of siNA in each well was 10 nM and the final volume of RNAiMax in each well was 0.3u1.
(§4) The time of incubation with the RNAiMax-siNA complexes was 24 hours and there was no change in media between transfection and harvesting, unless otherwise indicated.
(§5) RNA was extracted from a 96-well plate using the TaqMan® Gene Expression Cells-to-CT™ Kit (Cat#4399002) with a modified protocol. Briefly, a 60 uL (1 plate) or 110 uL (2 plates) of the Lysis Solution with DNase I was dispensed into each well of the Lysis Buffer Plate (twin.tec full skirt plate). The lysis buffer and stop plates were stored at 4° C. until the cells were washed.
(§6) The plate was spun at 1100 rpm for 5 minutes. The culture medium was aspirated and discarded from the wells of the culture plate. The lysis was performed automatically using a BioMek FX instrument and method. After the Biomek method was completed, the lysis plate was incubated for 2 min. at room temperature. The lysis plate can be stored for 2 hours at 4° C., or at −20° C. or −80° C. for two months.
(§7) Each well of the reverse transcription plate required 10 uL of 2× reverse transcriptase Buffer, luL of 20× reverse transcription enzyme and 2 uL of nuclease-free water. The reverse transcription master mix was prepared by mixing 2× reverse transcription buffer, 20× reverse transcription enzyme mix, and nuclease-free water. 13 uL of the reverse transcription master mix was dispensed into each well of the reverse transcription plate (semi-skirted). A separate reverse transcription plate was prepared for each cell plate. The plate was loaded onto a Biomek NX or Biomek FX Dual-96 and the Biomek method was run. The program is programmed to automatically added 7 uL of lysate from the cell lysis procedure described above into each well of the reverse transcription plate. The plate is sealed and spun on a centrifuge (1000 rpm for 30 seconds) to settle the contents to the bottom of the reverse transcription plate. The plate is placed in a thermocycler at 37° C. for 60 min, 95° C. for 5 min, and 4° C. until the plate is removed from the thermocycler. Upon removal, if not used immediately, the plate was frozen at −20° C.
(§8) A series of probes and primers were used to detect the various mRNA transcripts of the genes of 13-Actin (human cell line only), and of STATE and GAPDH in mouse and human cell lines. All Taqman probes and primers for the experiments here-in described were supplied as pre-validated sets by Applied Biosystems, Inc. (see Table 2).
The assays were performed on an ABI 7900 instrument, according to the manufacturer's instructions. A TaqMan Gene Expression Master Mix (provided in the Cells-to-CTT™, Applied Biosystems, Cat #4399002) was used. […]

STAT6 mRNA [2] = experiment: STAT6 siNA screen and dose response in human A549 cells, STAT6 mRNA by quantitative RT-PCR (Taqman); type: cell-based; conditions: human A549 cells, 10 nM siNA, 24 hrs, normalized to GAPDH and non-targeting control, mean ± S.D., n = 3
Protocol: A549 (human; ATCC cat# CCL-185): Cells were cultured at 37° C. in the presence of 5% CO2 and grown in Ham's F12K medium with 2 mM L-glutamine adjusted to contain 1.5 g/L sodium bicarbonate and supplemented with fetal bovine serum at a final concentration of 10%, 100 μg/mL of streptomycin, and 100 U/mL penicillin.
as §1, §2, §3, §4, §5, §6, §7, §8
The assays were performed on an ABI 7900 instrument, according to the manufacturer's instructions. A TaqMan Gene Expression Master Mix (provided in the Cells-to-CTT™, Applied Biosystems, Cat #4399002) was used. The PCR reactions were carried out at 50° C. for 2 min, 95° C. for 20 min followed by 40 cycles at 95° C. for 15 secs and 60° C. for 1 min. […]

Row | Substance | % KD STAT6 (STAT6 mRNA [1]) [%] | % KD STAT6 (STAT6 mRNA [2]) [%]
1 | 30003-DC: STAT6 siNA duplex; sense SEQ ID NO: 70, antisense SEQ ID NO: 71; target CGUGGAAAGGGACCAACCA, site 2218 (sense CGUGGAAAGGGACCAACCATT; antisense UGGUUGGUCCCUUUCCACGUU; sense: DNA at AGT, 2'-fluoro at CU, [invAb] at 5' end, 3' end, backbone not given here; antisense: sugars from the 5' end rrrffmmfffffffffmfmmm, backbone not given here) [STAT6 siNA duplex; target CGU…, site 2218] | −22.6 ± 6.6 | −11.1 ± 23.2
2 | 30006-DC: STAT6 siNA duplex; sense SEQ ID NO: 76, antisense SEQ ID NO: 77; target CCACUAUCCUGUGGGACAA, site 1542 (sense CCACUAUCCUGUGGGACAATT; antisense UUGUCCCACAGGAUAGUGGUU; sense: DNA at AGT, 2'-fluoro at CU, [invAb] at 5' end, 3' end, backbone not given here; antisense: sugars from the 5' end rrrffffmfmmmmfmmfmmmm, backbone not given here) [STAT6 siNA duplex; target CCACUAUCCUGUGGGACAA, site 1542] | −27.4 ± 8.5 | 72.9 ± 1.7
3 | 30009-DC: STAT6 siNA duplex; sense SEQ ID NO: 82, antisense SEQ ID NO: 83; target GCUUUGCUCAGAUGUGACU, site 2538 (sense GCUUUGCUCAGAUGUGACUTT; antisense AGUCACAUCUGAGCAAAGCUU; sense: DNA at AGT, 2'-fluoro at CU, [invAb] at 5' end, 3' end, backbone not given here; antisense: sugars from the 5' end rrrfmfmfffmmmfmmmmfmm, backbone not given here) [STAT6 siNA duplex; target GCUUUGCUCAGAUGUGACU, site 2538] | 72.7 ± 5.4 | 63.5 ± 4.6
4 | 30026-DC: STAT6 siNA duplex; sense SEQ ID NO: 116, antisense SEQ ID NO: 117; target GCAGUGGUUUGAUGGUGUC, site 1816 (sense GCAGUGGUUUGAUGGUGUCTT; antisense GACACCAUCAAACCACUGCUU; sense: DNA at AGT, 2'-fluoro at CU, [invAb] at 5' end, 3' end, backbone not given here; antisense: sugars from the 5' end rrrmffmffmmmffmffmfmm, backbone not given here) [STAT6 siNA duplex; target GCAGUGGUUUGAUGGUGUC, site 1816] | 59.8 ± 1.1 | 58.4 ± 8.1
5 | 29996-DC: STAT6 siNA duplex; sense SEQ ID NO: 56, antisense SEQ ID NO: 57; target GCACCAUCUUGCAACACAU, site 495 (sense GCACCAUCUUGCAACACAUTT; antisense AUGUGUUGCAAGAUGGUGCUU; sense: DNA at AGT, 2'-fluoro at CU, [invAb] at 5' end, 3' end, backbone not given here; antisense: sugars from the 5' end rrrfmffmfmmmmfmmfmfmm, backbone not given here) [STAT6 siNA duplex; target GCACCAUCUUGCAACACAU, site 495] | −10.9 ± 0.1 | 49.5 ± 5.5
6 | 30014-DC: STAT6 siNA duplex; sense SEQ ID NO: 92, antisense SEQ ID NO: 93; target GGCCUUUCAGCACCGCUGU, site 1755 (sense GGCCUUUCAGCACCGCUGUTT; antisense ACAGCGGUGCUGAAAGGCCUU; sense: DNA at AGT, 2'-fluoro at CU, [invAb] at 5' end, 3' end, backbone not given here; antisense: sugars from the 5' end rrrmfmmfmffmmmmmmffmm, backbone not given here) [STAT6 siNA duplex; target GGCCUUU…UGU, site 1755] | 30.6 ± 2.8 | −0.4 ± 17.4
7 | 29993-DC: STAT6 siNA duplex; sense SEQ ID NO: 50, antisense SEQ ID NO: 51; target CCCUUGAGAGCAUAUAUCA, site 519 (sense CCCUUGAGAGCAUAUAUCATT; antisense UGAUAUAUGCUCUCAAGGGUU; sense: DNA at AGT, 2'-fluoro at CU, [invAb] at 5' end, 3' end, backbone not given here; antisense: sugars from the 5' end rrrfmfmfmffmfmmmmmmmm, backbone not given here) [STAT6 siNA duplex; target CCCUUGAGAGCAUAUAUCA, site 519] | −23.4 ± 1.6 | 24.4 ± 8.1
8 | 30002-DC: STAT6 siNA duplex; sense SEQ ID NO: 68, antisense SEQ ID NO: 69; target GAUAGAAACUCCUGCUAAU, site 766 (sense GAUAGAAACUCCUGCUAAUTT; antisense AUUAGCAGGAGUUUCUAUCUU; sense: DNA at AGT, 2'-fluoro at CU, [invAb] at 5' end, 3' end, backbone not given here; antisense: sugars from the 5' end rrrmmfmmmmmfffffmffmm, backbone not given here) [STAT6 siNA duplex; target GAUAGAAACUCCUGCUAAU, site 766] | −22.3 ± 3.5 | 55.9 ± 9.4
9 | 29991-DC: STAT6 siNA duplex; sense SEQ ID NO: 46, antisense SEQ ID NO: 47; target CAGCCAAAGCCCUAGUGCU, site 846 (sense CAGCCAAAGCCCUAGUGCUTT; antisense AGCACUAGGGCUUUGGCUGUU; sense: DNA at AGT, 2'-fluoro at CU, [invAb] at 5' end, 3' end, backbone not given here; antisense: sugars from the 5' end rrrmffmmmmffffmmffmmm, backbone not given here) [STAT6 siNA duplex; target …UAGUGCU, site 846] | −30 ± 9.2 | −2.1 ± 17.7
10 | 30013-DC: STAT6 siNA duplex; sense SEQ ID NO: 90, antisense SEQ ID NO: 91; target CAUGGUGCCACCUUAUGAU, site 2280 (sense CAUGGUGCCACCUUAUGAUTT; antisense AUCAUAAGGUGGCACCAUGUU; sense: DNA at AGT, 2'-fluoro at CU, [invAb] at 5' end, 3' end, backbone not given here; antisense: sugars from the 5' end rrrmfmmmmfmmfmffmfmmm, backbone not given here) [STAT6 siNA duplex; target CAUGGUGCCACCUUAUGAU, site 2280] | 46.1 ± 2.2 | 19.6 ± 13.6
